From US7485651B2, “Compounds with activity on muscarinic receptors” (Acadia Pharmaceuticals, Inc., priority 1998, dated 2009) come the findings set out here.

The target of one test is T1, serotonin 5-HT1A (Homo sapiens, UniProt P08908).
T1 sequence (P08908 1-422): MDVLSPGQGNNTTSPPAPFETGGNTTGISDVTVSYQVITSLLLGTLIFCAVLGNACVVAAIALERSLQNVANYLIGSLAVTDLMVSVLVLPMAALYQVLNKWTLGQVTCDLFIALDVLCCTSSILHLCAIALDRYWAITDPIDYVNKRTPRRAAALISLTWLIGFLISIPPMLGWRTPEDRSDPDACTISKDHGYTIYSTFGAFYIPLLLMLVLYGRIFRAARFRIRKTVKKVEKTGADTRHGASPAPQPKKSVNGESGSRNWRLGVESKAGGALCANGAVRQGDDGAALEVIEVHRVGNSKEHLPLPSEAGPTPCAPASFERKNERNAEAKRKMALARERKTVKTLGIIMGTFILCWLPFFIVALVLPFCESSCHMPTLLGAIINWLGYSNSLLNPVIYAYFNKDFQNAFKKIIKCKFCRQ
As to the kind of experiment: Test against other receptors: serotonin 5-HT1A. In kind it is cell-based.

The next test concerns the target T2, m5 receptor (Homo sapiens, UniProt P08912).
T2 construct: expressed in transfected cells; host or cells: NIH 3T3 (ATCC CRL 1658)
T2 sequence (P08912 1-532): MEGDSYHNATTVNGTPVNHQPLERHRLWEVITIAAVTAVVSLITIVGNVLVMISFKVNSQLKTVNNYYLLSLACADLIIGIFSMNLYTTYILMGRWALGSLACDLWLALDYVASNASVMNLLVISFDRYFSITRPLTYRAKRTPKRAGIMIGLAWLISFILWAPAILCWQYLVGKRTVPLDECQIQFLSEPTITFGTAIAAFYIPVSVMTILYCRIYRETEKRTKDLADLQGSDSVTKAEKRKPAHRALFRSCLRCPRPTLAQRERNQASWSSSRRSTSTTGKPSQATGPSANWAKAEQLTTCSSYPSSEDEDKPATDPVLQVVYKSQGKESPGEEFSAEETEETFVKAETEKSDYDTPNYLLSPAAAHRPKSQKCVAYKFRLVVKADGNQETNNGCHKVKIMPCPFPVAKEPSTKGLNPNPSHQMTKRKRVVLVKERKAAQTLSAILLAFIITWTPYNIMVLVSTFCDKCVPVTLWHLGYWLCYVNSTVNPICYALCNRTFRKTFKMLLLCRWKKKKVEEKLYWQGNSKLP
As to the kind of experiment: R-SAT / NIH 3T3 cells transfected with m5 muscarinic receptor. The format is cell-based. From the text: A particularly convenient functional assay system is the receptor selection and amplification assay disclosed in U.S. Pat. No. 5,707,798 describing a method of screening for bioactive compounds by utilizing the ability of cells transfected with receptor DNA, e.g. coding for the different muscarinic subtypes, to amplify in the presence of a ligand of the receptor. Cell amplification is detected as increased levels of a marker also expressed by the cells.
Transfection of cells with muscarinic receptor DNAs (general procedure) NIH 3T3 cells (available from the American Type Culture Collection as ATCC CRL 1658) were grown at 37° C. in a humidified atmosphere (5% CO2) incubator in Dulbecco's modified Eagle's medium (DMEM) supplemented with 4.5 g/l glucose, 4 mM glutamine, 50 units/m1 penicillin, 50 units/m1 streptomycin (available from Advanced Biotechnologies, Inc., Gaithersburg, Md.) and 10% calf serum (available from Sigma, St. Louis, […].). The cells were treated with trypsin-EDTA, spun down and plated at 2×10^6 per 15 cm dish in 20 m1 of DMEM containing 10% calf serum.
The m1-m5 muscarinic receptor subtypes were cloned substantially as described by Bonner et al., Science 237, 1987, p. 527, and Bonner et al., Neuron 1, 1988, p. 403. For the m2 and m4 receptors, the cells were co-transfected with DNA encoding a chimera between the Gq protein and the five carboxy-terminal amino acids of the Gi protein (the Gq-i5 construct is described by Conklin et al., Nature 363, 1993, p.274).
On day one, the cells were transfected using the Superfect transfection reagent (available from Qiagen, Valencia, Calif.) in accordance with the manufacturer's instructions. Receptor DNA, β-gal DNA (pSI-β-galactosidase available from Promega, Madison, Wis.), chimeric Gq-i5 DNA for the m2 and m4 receptor subtype assays, and salmon sperm DNA (available from Sigma, St. Louis, […].) as filler to a total of 20 μg DNA was added per plate. Prior to addition to the plates, 60 μl Superfect was added to the DNA and mixed thoroughly by pipetting up and down several times. The mixture was incubated at room temperature for 10-15 minutes. The media were aspirated, and 12 ml fresh DMEM containing 10% calf serum and 50 units/m1 penicillin/streptomycin was added to the plates. The DNA-Superfect solution was mixed once more with a pipette and added to the plate which was swirled to distribute the DNA mixture evenly over the surface. The cells were incubated overnight at 37° C. and 5% CO2. After incubation, the media were aspirated and the plates were rinsed once with a 15 m1 volume of Hank's Buffered Saline. The plates were swirled to ensure thorough rinsing. 20 m1 fresh DMEM supplemented with 10% calf serum and 50 units/m1 penicillin/streptomycin was added to the plates. The cells were incubated for 24-48 hours until the plates were 100% confluent.
Assay of NIH 3T3 cells transfected with muscarinic receptor subtypes (general procedure) DMEM containing 2% Cyto-SF3 was heated at 37° C. in a water bath under sterile conditions. Sterile working stock solutions of test compounds to be assayed were prepared by diluting the compounds in DMEM to 8× the final concentration for testing. The compound (carbachol) to be included in the assay as a positive control was also diluted in DMEM to 8× the final concentration. 50 μL of the DMEM containing 2% Cyto-SF3 was added to each well of 96-well microtiter plates under sterile conditions. Then, 16 of compound solutions were added to the top wells of the plates, and dilution of the solutions was performed by taking 16 μl of the compound solutions from the top wells and pipetting them into the next row of wells. This procedure was repeated with each subsequent row of wells, except that 50 μl medium alone was added to the baseline control wells (the wells that contain medium and cells, but not test compounds) and plate control wells (wells containing medium, but not test compounds and cells). […]

For the compound `CCCCC1CCN(CCCC(=O)c2ccccc2C)CC1` [Compound A, 4-n-Butyl-1-[4-(2-methylphenyl)-4-oxo-1-butyl]piperidine], on serotonin 5-HT1A, the agonist activity entry is “no significant activity” and the “inhibition of receptor responses (antagonist experiments)” value is recorded as “did not inhibit”. Further, the “agonist activity at the m5 receptor” value at m5 receptor is listed as “only activated the m1 receptor subtype”. Also, the Emax at 1.5 µM at m5 receptor (NIH3T3, m5, compound at 1.5 μM, maximum = response to 10 μM carbachol, read-out: Cellular response as a percentage of the maximum response of the cells) came out at 3%. The “antagonism of carbachol-induced responses” value on m5 receptor (m5) was “not an antagonist”.
